Patent US20240252488A1 (KOREA RESEARCH INSTITUTE OF CHEMICAL TECHNOLOGY, priority 2020, published 2024)

Columns and labels:
[1] = target: T1, MLKL (Homo sapiens, UniProt Q8NB16); experiment: Measurement of binding affinity with MLKL receptor (competitive binding assay, Kd); design: made in house; host or cells: HEK 293 cell line (T7 phage in E. coli BL21-derived host is also described)
T1 sequence (Q8NB16 1-471): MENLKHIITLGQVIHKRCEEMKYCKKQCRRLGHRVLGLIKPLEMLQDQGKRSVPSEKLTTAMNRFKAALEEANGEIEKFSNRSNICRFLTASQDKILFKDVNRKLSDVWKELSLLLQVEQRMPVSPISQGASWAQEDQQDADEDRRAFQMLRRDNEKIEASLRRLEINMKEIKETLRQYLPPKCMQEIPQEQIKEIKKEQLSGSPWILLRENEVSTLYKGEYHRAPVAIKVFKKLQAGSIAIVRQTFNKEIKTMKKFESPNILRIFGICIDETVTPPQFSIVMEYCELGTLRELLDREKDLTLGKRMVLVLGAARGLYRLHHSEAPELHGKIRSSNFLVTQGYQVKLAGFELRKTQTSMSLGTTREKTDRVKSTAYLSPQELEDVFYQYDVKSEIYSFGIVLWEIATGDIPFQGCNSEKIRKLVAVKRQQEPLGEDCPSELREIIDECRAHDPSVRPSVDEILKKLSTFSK
How it was run: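 Kd comes from a bead-based competition format: compound-dependent loss of DNA-tagged, HEK 293-expressed MLKL capture, measured as eluate kinase by qPCR. Final DMSO is 0.9%.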

[2] = tested on: FADD−/− Jurkat cells; experiment: Necroptosis inhibition assay, TNF-α-induced necroptosis (CellTiter-Glo 2.0); assay type: cell-based, human; settings: TNF-α 15 ng/mL; for Necroptosis inhibition assay (Rescue %) 1 μM: compound 1 μM; for Necroptosis inhibition assay (Rescue %) 10 μM: compound 10 μM
How it was run: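 Compound is added to cells at final concentrations of 0.1, 1 and 10 μM and left 30 minutes at room temperature. Necroptosis is induced with 15 ng/mL TNF-α, culture continues 20 to 24 hours at 37° C, and ATP-based luminescence reports viability.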

[3] = target: T1, MLKL; experiment: MLKL degradation assay in HepG2 cell line (western blot); assay type: cell-based; design: endogenous in cells; host or cells: HepG2 or HaCaT; settings: cell line not given; for Degradation assay (Degradation %) 1 μM: compound 1 μM; for Degradation assay (Degradation %) 10 μM: compound 10 μM
How it was run: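 Chemiluminescent western blot signal reports remaining MLKL protein in HepG2 cells after 20-24 h treatment with compound at a final 1 or 10 μM. Equal protein (10-15 μg, BCA) is loaded per lane.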

Compound | Kd [1] [nM] | Necroptosis inhibition assay (Rescue %) 1 μM [2] [%] | Necroptosis inhibition assay (Rescue %) 10 μM [2] [%] | Degradation assay (Degradation %) 1 μM [3] [%] | Degradation assay (Degradation %) 10 μM [3] [%]
Nc1ncc(-c2cnn(C3CCN(CCC4CCN(C(=O)CCc5cccc6c5C(=O)N(C5CCC(=O)NC5=O)C6=O)CC4)CC3)c2)nc1C(=O)O[C@@H](C(=O)Nc1ccc(F)cc1)c1ccccc1 (stereo partly drawn) [TDH-376, (R)-2-((4-fluorophenyl)amino)-2-oxo-1-phenylethyl 3-amino-6-(1-(1-(2-(1-(3-(2-(2,6-dioxopiperidin-3-yl)-1,3-dioxoisoindolin-4-yl)propanoyl)piperidin-4-yl)ethyl)piperidin-4-yl)-1H-pyrazol-4-yl)pyrazine-2-carboxylate] | 0.54 | 76.20 | 30.33 | 93.13 | 86.31
Nc1ncc(-c2cnn(C3CCN(CCC4CCN(C(=O)CCc5ccc6c(c5)C(=O)N(C5CCC(=O)NC5=O)C6=O)CC4)CC3)c2)nc1C(=O)O[C@@H](C(=O)Nc1ccc(F)cc1)c1ccccc1 (stereo partly drawn) [TDH-377, (R)-2-((4-fluorophenyl)amino)-2-oxo-1-phenylethyl 3-amino-6-(1-(1-(2-(1-(3-(2-(2,6-dioxopiperidin-3-yl)-1,3-dioxoisoindolin-5-yl)propanoyl)piperidin-4-yl)ethyl)piperidin-4-yl)-1H-pyrazol-4-yl)pyrazine-2-carboxylate] | 0.61 | 62.50 | 27.37 | 89.95 | 82.82
Nc1ncc(-c2cnn(C3CCN(CCOC4CCN(C(=O)CCc5cccc6c5C(=O)N(C5CCC(=O)NC5=O)C6=O)CC4)CC3)c2)nc1C(=O)O[C@@H](C(=O)Nc1ccc(F)cc1)c1ccccc1 (stereo partly drawn) [TDH-378, (R)-2-((4-fluorophenyl)amino)-2-oxo-1-phenylethyl 3-amino-6-(1-(1-(2-((1-(3-(2-(2,6-dioxopiperidin-3-yl)-1,3-dioxoisoindolin-4-yl)propanoyl)piperidin-4-yl)oxy)ethyl)piperidin-4-yl)-1H-pyrazol-4-yl)pyrazine-2-carboxylate] | 2 | 49.61 | 28.89 | 88.62 | 80.01
Nc1ncc(-c2cnn(C3CCN(CCOC4CCN(C(=O)CCc5ccc6c(c5)C(=O)N(C5CCC(=O)NC5=O)C6=O)CC4)CC3)c2)nc1C(=O)O[C@@H](C(=O)Nc1ccc(F)cc1)c1ccccc1 (stereo partly drawn) [TDH-379, (R)-2-((4-fluorophenyl)amino)-2-oxo-1-phenylethyl 3-amino-6-(1-(1-(2-((1-(3-(2-(2,6-dioxopiperidin-3-yl)-1,3-dioxoisoindolin-5-yl)propanoyl)piperidin-4-yl)oxy)ethyl)piperidin-4-yl)-1H-pyrazol-4-yl)pyrazine-2-carboxylate] | 2.9 | 36.70 | 28.98 | 69.78 | 88.75
Nc1ncc(-c2cnn(C3CCN(C(=O)C4CCN(C(=O)CCc5cccc6c5C(=O)N(C5CCC(=O)NC5=O)C6=O)CC4)CC3)c2)nc1C(=O)O[C@@H](C(=O)Nc1ccc(F)cc1)c1ccccc1 (stereo partly drawn) [TDH-380, (R)-2-((4-fluorophenyl)amino)-2-oxo-1-phenylethyl 3-amino-6-(1-(1-(1-(3-(2-(2,6-dioxopiperidin-3-yl)-1,3-dioxoisoindolin-4-yl)propanoyl)piperidine-4-carbonyl)piperidin-4-yl)-1H-pyrazol-4-yl)pyrazine-2-carboxylate] | 1.5 | 38.37 | 35.96 | 86.88 | 95.41
Nc1ncc(-c2cnn(C3CCN(C(=O)C4CCN(C(=O)CCc5ccc6c(c5)C(=O)N(C5CCC(=O)NC5=O)C6=O)CC4)CC3)c2)nc1C(=O)O[C@@H](C(=O)Nc1ccc(F)cc1)c1ccccc1 (stereo partly drawn) [TDH-381, (R)-2-((4-fluorophenyl)amino)-2-oxo-1-phenylethyl 3-amino-6-(1-(1-(1-(3-(2-(2,6-dioxopiperidin-3-yl)-1,3-dioxoisoindolin-5-yl)propanoyl)piperidine-4-carbonyl)piperidin-4-yl)-1H-pyrazol-4-yl)pyrazine-2-carboxylate] | 1.5 | 32.48 | 28.99 | 78.38 | 77.07
Nc1ncc(-c2cnn(C3CCN(CCCN4CCN(C(=O)CCc5cccc6c5C(=O)N(C5CCC(=O)NC5=O)C6=O)CC4)CC3)c2)nc1C(=O)O[C@@H](C(=O)Nc1ccc(F)cc1)c1ccccc1 (stereo partly drawn) [TDH-382, (R)-2-((4-fluorophenyl)amino)-2-oxo-1-phenylethyl 3-amino-6-(1-(1-(3-(4-(3-(2-(2,6-dioxopiperidin-3-yl)-1,3-dioxoisoindolin-4-yl)propanoyl)piperazin-1-yl)propyl)piperidin-4-yl)-1H-pyrazol-4-yl)pyrazine-2-carboxylate] | 0.42 | 59.24 | 22.12 | 81.82 | 81.68
Nc1ncc(-c2cnn(C3CCN(CCCN4CCN(C(=O)CCc5ccc6c(c5)C(=O)N(C5CCC(=O)NC5=O)C6=O)CC4)CC3)c2)nc1C(=O)O[C@@H](C(=O)Nc1ccc(F)cc1)c1ccccc1 (stereo partly drawn) [TDH-383, (R)-2-((4-fluorophenyl)amino)-2-oxo-1-phenylethyl 3-amino-6-(1-(1-(3-(4-(3-(2-(2,6-dioxopiperidin-3-yl)-1,3-dioxoisoindolin-5-yl)propanoyl)piperazin-1-yl)propyl)piperidin-4-yl)-1H-pyrazol-4-yl)pyrazine-2-carboxylate] | 0.42 | 46.33 | 25.19 | 79.04 | 81.95
Nc1ncc(-c2cnn(C3CCN(CC4CCN(C(=O)CCc5cccc6c5CN(C5CCC(=O)NC5=O)C6=O)CC4)CC3)c2)nc1C(=O)O[C@@H](C(=O)Nc1ccc(F)cc1)c1ccccc1 (stereo partly drawn) [TDH-384, (R)-2-((4-fluorophenyl)amino)-2-oxo-1-phenylethyl 3-amino-6-(1-(1-((1-(3-(2-(2,6-dioxopiperidin-3-yl)-1-oxoisoindolin-4-yl)propanoyl)piperidin-4-yl)methyl)piperidin-4-yl)-1H-pyrazol-4-yl)pyrazine-2-carboxylate] | 1.9 | 39.08 | 9.67 | 81.59 | 58.63
Nc1ncc(-c2cnn(C3CCN(CCC4CCN(C(=O)CCc5cccc6c5CN(C5CCC(=O)NC5=O)C6=O)CC4)CC3)c2)nc1C(=O)O[C@@H](C(=O)Nc1ccc(F)cc1)c1ccccc1 (stereo partly drawn) [TDH-385, (R)-2-((4-fluorophenyl)amino)-2-oxo-1-phenylethyl 3-amino-6-(1-(1-(2-(1-(3-(2-(2,6-dioxopiperidin-3-yl)-1-oxoisoindolin-4-yl)propanoyl)piperidin-4-yl)ethyl)piperidin-4-yl)-1H-pyrazol-4-yl)pyrazine-2-carboxylate] | 0.76 | 53.62 | 14.09 | 94.85 | 85.11
